Patent publication US12714576B2, “System and method for treatment of bone” (SHANKAR RAJESWARAN M.D. LLC, priority 2020, dated 2026)
Values joined by “and” are separate entries in the source; they are usually repeats but may differ in a detail not shown here. Identical values can stand only once.

System: unicameral bone cyst (UBC)
Test: Retrospective evaluation of pediatric patients with UBC treated by doxycycline chemical curettage (sclerotherapy) and injection of synthetic bone graft
Type: in vivo
Method: Summary. Retrospective evaluation of twelve pediatric patients, ages 5-14 years, undergoing treatment for a UBC, at a single institution. All UBCs were treated in a single, minimally invasive, image guided procedure using percutaneous needle access into the UBC followed by chemical curettage (a form of sclerotherapy) and injection of regenerative synthetic graft. Patients were followed clinically, and with serial radiographs, to evaluate for healing and complications. Mean time to return to full activity was 2.2 months post procedure, with a mean clinical follow-up time of 9.2 months.
Methods. Fifteen patients were initially enrolled in this IRB approved study from August 2018 through May 2020. The diagnosis of UBC was made via radiographs and/or magnetic resonance imaging (MRI).
Combination sclerotherapy and graft injection with CaSO4—CaPO4 was performed in a single setting as an outpatient procedure with an average procedure time of 45 minutes (range 30-60 minutes). Mean volume of doxycycline instilled during cyst sclerotherapy was 52 mL (20 mg/ml and a range 20-100 mL). Mean volume of CaSO4—CaPO4 synthetic graft material administered was 28 mL (range 4-90 mL).
Patients were followed clinically for a minimum of three months post procedure, with radiographs performed at follow-up visits. One patient was excluded as they had imaging consistent with a fractured UBC that had subsequently rehealed into multiple cysts, and 2 other patients were excluded secondary to follow up of less than 3 months.
Assessment of treatment response was evaluated using the Modified Neer Classification of Radiographic Healing, as shown above in Table 1. All radiographs were evaluated by four attending pediatric radiologists.
Procedure Technique. All procedures were performed under general anesthesia. For each procedure, the cyst was localized under fluoroscopy, and the upper and lower margins of the cyst were marked on the skin. Ultrasound mapping of the area of concern was performed to identify critical structures such as arteries or nerves. However, the cyst itself could often be visualized sonographically due to associated cortical thinning.
A 5 mm incision was made at each cyst margin as marked on the skin, and an 11-gauge or 14-gauge “treatment” needle was advanced into the cyst percutaneously. Choice of needle gauge was determined by cyst size and the expected amount of synthetic graft to be administered, with 11-gauge needles used in larger cysts. A second 5 mm incision was made along the remaining marked margin of the lesion, and a 14-gauge or 16-gauge “venting” needle was placed.
Next, Omnipaque-180 (GE Healthcare), a water-soluble iodinated contrast, was diluted with sterile saline in a 1:1 ratio and was injected via the treatment needle during fluoroscopic visualization, taking care to ensure fluid egress via the venting needle. Contrast injection was performed to confirm a cystic nature of the UBC, to ensure adequate diffusion of the injected contrast throughout the cystic cavity, as well as to assess the presence of unexpected significant vascular outflow. Occasionally, an incomplete septation within the cyst was encountered, likely secondary healing change related to a prior pathologic fracture or prior treatment.
Doxycycline (20 mg/mL), in a volume to match the cyst volume, was injected through the treatment needle and aspirated through the venting needle in a push-pull fashion, irrigating the cyst for one minute. The doxycycline was allowed to dwell for another nine minutes. A second round of sclerosant irrigation was then performed using similar technique and fresh doxycycline solution; thus, the total duration of doxycycline sclerotherapy was 20 minutes.
Utilizing the cyst volume determined during initial contrast injection, a similar volume of synthetic bone graft material was prepared and injected through the treatment needle during live fluoroscopy. […]

## C[C@H]1c2cccc(O)c2C(=O)C2=C(O)[C@]3(O)C(=O)C(C(N)=O)=C(O)[C@@H](N(C)C)[C@@H]3[C@@H](O)[C@@H]21 [doxycycline]
10 of 12 patients, most recent follow-up radiographs
  Patients with healing of the UBC (Modified Neer class 1): 83%
11 of 12 patients, most recent follow-up
  Patients showing healed cysts (Modified Neer classes 1 or 2): 91.7%
12 patients
  Adverse events related to the procedures: no adverse events related to the procedures
  Perioperative complications: No perioperative complications were observed
One line per patient (patients 1-12), doxycycline 20 mg/mL sclerotherapy followed by CaSO4-CaPO4 synthetic graft (PRO-DENSE)
  Return to Activities (mo): 1.0 mo and 0.8 mo and 1.9 mo and 2.1 mo and 1.3 mo and 1.6 mo (2×) and 1.2 mo and 3.1 mo and 4.8 mo and 2.8 mo and 3.7 mo
One of 12 patients, most recent follow-up radiographs
  Patients with healing with a small defect (Modified Neer class 2): 8%
